Test results: ChEMBL document CHEMBL5226336, “Design, Synthesis, and Evaluation of [18F]T-914 as a Novel Positron-Emission Tomography Tracer for Lysine-Specific Demethylase 1” (J Med Chem, 2021)
Activity calls are given as the source filed them. No cut-off for these calls is given here.

Key:
LSD1/CoREST complex = LSD1/CoREST complex (Homo sapiens, UniProt O60341); experiment: Inhibition of human recombinant LSD1/CoREST using ART(mK)QTARKSTGGKAPRKQLAGGK-biotin as substrate incubated for 15 mins; type: protein-complex assay
[1] = target: P-glycoprotein (ABCB1, MDR1) (Homo sapiens, UniProt P08183); experiment: Substrate activity at p-glycoprotein (unknown origin) expressed in pig LLC-PK1 cells coexpressing MDR1 assessed as efflux ratio at apparent permeability across basolateral to apical side to apparent permeability across apical to basolateral side at 1 uM measured after 1 hr by LC-MS/MS analysis; type: ADME, cell-based
P-glycoprotein (ABCB1, MDR1), sequence (P08183 whole entry): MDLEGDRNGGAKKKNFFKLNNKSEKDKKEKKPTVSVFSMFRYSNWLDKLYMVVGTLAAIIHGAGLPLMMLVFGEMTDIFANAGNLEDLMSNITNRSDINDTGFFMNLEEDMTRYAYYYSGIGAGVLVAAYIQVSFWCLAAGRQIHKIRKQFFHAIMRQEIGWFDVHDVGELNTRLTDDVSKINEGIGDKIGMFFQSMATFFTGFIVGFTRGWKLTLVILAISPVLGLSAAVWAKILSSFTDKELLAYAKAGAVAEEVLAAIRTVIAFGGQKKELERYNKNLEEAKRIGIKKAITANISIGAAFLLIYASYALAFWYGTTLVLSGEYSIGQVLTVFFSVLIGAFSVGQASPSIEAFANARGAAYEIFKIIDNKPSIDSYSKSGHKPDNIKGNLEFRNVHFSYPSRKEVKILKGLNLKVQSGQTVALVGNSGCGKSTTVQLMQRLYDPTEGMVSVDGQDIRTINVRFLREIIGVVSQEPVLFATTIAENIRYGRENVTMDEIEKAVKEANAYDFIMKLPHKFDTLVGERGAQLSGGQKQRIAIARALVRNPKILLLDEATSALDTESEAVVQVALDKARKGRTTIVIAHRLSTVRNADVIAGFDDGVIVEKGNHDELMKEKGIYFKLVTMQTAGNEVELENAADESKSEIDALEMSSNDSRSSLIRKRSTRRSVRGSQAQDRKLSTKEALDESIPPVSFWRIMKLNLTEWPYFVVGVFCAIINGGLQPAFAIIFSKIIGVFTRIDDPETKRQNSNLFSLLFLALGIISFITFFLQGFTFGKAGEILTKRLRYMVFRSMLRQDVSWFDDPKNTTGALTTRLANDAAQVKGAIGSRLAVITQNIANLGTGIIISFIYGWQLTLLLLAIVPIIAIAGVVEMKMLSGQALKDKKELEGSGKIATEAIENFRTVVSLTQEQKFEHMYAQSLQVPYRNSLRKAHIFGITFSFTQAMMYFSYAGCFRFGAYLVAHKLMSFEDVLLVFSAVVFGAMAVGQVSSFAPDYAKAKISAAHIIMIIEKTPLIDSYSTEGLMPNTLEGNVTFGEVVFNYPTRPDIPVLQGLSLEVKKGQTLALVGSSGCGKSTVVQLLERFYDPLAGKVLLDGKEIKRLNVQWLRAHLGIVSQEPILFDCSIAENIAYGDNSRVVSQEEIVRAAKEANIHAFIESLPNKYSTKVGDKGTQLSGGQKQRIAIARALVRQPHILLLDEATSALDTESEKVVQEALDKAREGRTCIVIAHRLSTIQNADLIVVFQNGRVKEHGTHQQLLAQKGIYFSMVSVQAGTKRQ

[2] = Drug metabolism in Sprague-Dawley rat brain assessed as 6-fluoronicotinic acid level in cortex at 10 mg/kg, iv measured after 1 hr by HPLC-UV and LC/MS analysis; type: ADME, organism-based; settings: in vivo
[3] = Drug metabolism in Sprague-Dawley rat brain assessed as 6-fluoronicotinic acid formation in cortex at 10 mg/kg, iv measured after 4 hrs by HPLC-UV and LC/MS analysis; type: ADME, organism-based; settings: in vivo
[4] = Drug uptake in Sprague-Dawley rat brain at 1 mg/kg, iv measured after 1 to 24 hrs by LC-MS analysis; type: ADME, organism-based; settings: in vivo, time 1-24 hrs
[5] = Retention time of the compound by HPLC method; type: physicochemical
[6] = Drug metabolism in Sprague-Dawley rat brain assessed as fluorine-containing metabolite level in cortex at 10 mg/kg, iv measured after 1 to 4 hrs by HPLC-UV and LC/MS analysis; type: ADME, organism-based; settings: in vivo, time 1-4 hrs
[7] = Drug metabolism in cryopreserved human hepatocytes assessed as hydrolysis-mediated 6-fluoro-4-methylnicotinic acid formation measured for 6 hrs by HPLC-UV and LC/MS analysis; type: ADME, cell-based, Hepatocyte
[8] = Drug metabolism in cryopreserved human hepatocytes assessed as N-acetylglucosamine conjugation-mediated metabolite formation measured for 6 hrs by HPLC-UV and LC/MS analysis; type: ADME, cell-based, Hepatocyte
[9] = Drug metabolism in cryopreserved rat hepatocytes assessed as hydrolysis-mediated 6-fluoro-4-methylnicotinic acid formation measured for 6 hrs by HPLC-UV and LC/MS analysis; type: ADME, cell-based, Hepatocyte
[10] = Drug metabolism in cryopreserved rat hepatocytes assessed as N-acetylglucosamine conjugation-mediated metabolite formation measured for 6 hrs by HPLC-UV and LC/MS analysis; type: ADME, cell-based, Hepatocyte
[11] = Drug metabolism in cryopreserved monkey hepatocytes assessed as N-acetylglucosamine conjugation-mediated metabolite formation measured for 6 hrs by HPLC-UV and LC/MS analysis; type: ADME, cell-based, Macaca mulatta, Hepatocyte; settings: rhesus monkey
[12] = Drug metabolism in cryopreserved monkey hepatocytes assessed as hydrolysis-mediated 6-fluoro-4-methylnicotinic acid formation measured for 6 hrs by HPLC-UV and LC/MS analysis; type: ADME, cell-based, Macaca mulatta, Hepatocyte; settings: rhesus monkey
[13] = target: Lysine-specific histone demethylase 1A (Homo sapiens) (UniProt O60341); experiment: Binding affinity to human recombinant LSD1 assessed as compound-FAD adduct formation at 1 mM incubated for 1 hr by LC-MS analysis
[14] = target: T1, Amine oxidase [flavin-containing] A (Homo sapiens, UniProt P21397); experiment: Inhibition of MAO-A (unknown origin) incubated for 10 mins followed by MAO substrate addition and measured after 60 mins by luciferin-based luminescence assay
T1 sequence (P21397 whole entry): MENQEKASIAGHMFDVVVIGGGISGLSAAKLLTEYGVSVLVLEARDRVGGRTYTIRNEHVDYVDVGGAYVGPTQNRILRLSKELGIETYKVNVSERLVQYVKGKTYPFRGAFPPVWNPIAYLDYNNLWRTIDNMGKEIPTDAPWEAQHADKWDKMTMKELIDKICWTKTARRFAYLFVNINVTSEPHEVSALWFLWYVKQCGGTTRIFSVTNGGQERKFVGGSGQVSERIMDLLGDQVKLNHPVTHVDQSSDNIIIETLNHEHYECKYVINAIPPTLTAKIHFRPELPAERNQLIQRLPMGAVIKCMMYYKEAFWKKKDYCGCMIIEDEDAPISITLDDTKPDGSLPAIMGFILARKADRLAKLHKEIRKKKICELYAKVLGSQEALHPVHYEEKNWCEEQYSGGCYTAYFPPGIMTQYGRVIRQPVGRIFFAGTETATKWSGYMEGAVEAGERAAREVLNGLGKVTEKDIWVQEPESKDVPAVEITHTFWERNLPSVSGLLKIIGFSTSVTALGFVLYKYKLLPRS

[15] = target: T2, Amine oxidase [flavin-containing] B (Homo sapiens, UniProt P27338); experiment: Inhibition of MAO-B (unknown origin) incubated for 10 mins followed by MAO substrate addition and measured after 60 mins by luciferin-based luminescence assay
T2 sequence (P27338 whole entry): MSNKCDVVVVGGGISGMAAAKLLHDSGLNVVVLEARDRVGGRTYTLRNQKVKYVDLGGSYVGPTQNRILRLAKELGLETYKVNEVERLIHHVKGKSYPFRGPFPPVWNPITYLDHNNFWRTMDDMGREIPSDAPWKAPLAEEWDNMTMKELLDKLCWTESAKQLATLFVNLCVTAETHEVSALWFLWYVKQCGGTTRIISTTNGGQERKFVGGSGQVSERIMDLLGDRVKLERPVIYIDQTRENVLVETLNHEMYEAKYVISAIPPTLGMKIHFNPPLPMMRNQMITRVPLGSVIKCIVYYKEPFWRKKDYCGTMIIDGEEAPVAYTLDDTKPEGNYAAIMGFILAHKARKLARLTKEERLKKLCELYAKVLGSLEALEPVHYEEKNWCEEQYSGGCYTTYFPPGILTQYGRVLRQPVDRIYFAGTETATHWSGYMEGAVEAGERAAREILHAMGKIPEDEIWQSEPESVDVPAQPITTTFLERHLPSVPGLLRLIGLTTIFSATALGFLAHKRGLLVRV

[16] = Drug concentration in cynomolgus monkey plasma at 0.1 mg/kg, iv measured after 5 mins by LC-MS/MS analysis; type: ADME, organism-based, Macaca fascicularis
[17] = AUC(0 to 6 hrs) in cynomolgus monkey at 0.1 mg/kg, iv by LC-MS/MS analysis; type: ADME, organism-based, Macaca fascicularis; parameters: dose 0.1 mg/kg, route iv; settings: in vivo
[18] = Half life in cynomolgus monkey at 0.1 mg/kg, iv by LC-MS/MS analysis; type: ADME, organism-based, Macaca fascicularis; settings: in vivo
[19] = Total clearance in cynomolgus monkey at 0.1 mg/kg, iv by LC-MS/MS analysis; type: ADME, organism-based, Macaca fascicularis; settings: in vivo
[20] = Volume of distribution at steady state in cynomolgus monkey at 0.1 mg/kg, iv by LC-MS/MS analysis; type: ADME, organism-based, Macaca fascicularis; settings: in vivo, read-out: Vdss
[21] = Unbound drug concentration in Sprague-Dawley rat plasma assessed as free fraction ratio; type: ADME, cell-free
[22] = Unbound drug concentration in cynomolgus monkey plasma assessed as free fraction ratio; type: ADME, cell-free, Macaca fascicularis
[23] = Unbound drug concentration in Sprague-Dawley rat brain homogenate assessed as free fraction ratio; type: ADME, tissue-based
[24] = Lipophilicity, logD of the compound at pH 7.4; type: physicochemical; settings: buffer
[25] = Drug metabolism in Sprague-Dawley rat brain assessed as N-(6-fluoro-4-methylpyridin-3-yl)acetamide level in cortex at 10 mg/kg, iv measured after 1 hr by HPLC-UV and LC/MS analysis; type: ADME, organism-based; settings: in vivo
[26] = Drug metabolism in Sprague-Dawley rat brain assessed as N-(6-fluoro-4-methylpyridin-3-yl)acetamide level in cortex at 10 mg/kg, iv measured after 4 hrs by HPLC-UV and LC/MS analysis; type: ADME, organism-based; settings: in vivo
[27] = Drug uptake in Sprague-Dawley rat brain at 1 mg/kg, iv measured after 4 hrs by LC-MS analysis; type: ADME, organism-based; settings: in vivo, BLD = below limit of detection
[28] = Drug metabolism in Sprague-Dawley rat brain assessed as N-(6-fluoropyridin-3-yl)-N-methylacetamide level in cortex at 1 mg/kg, iv measured after 1 hr by HPLC-UV and LC/MS analysis; type: ADME, organism-based; settings: in vivo
[29] = Drug metabolism in Sprague-Dawley rat brain assessed as N-(6-fluoropyridin-3-yl)-N-methylacetamide level in cortex at 1 mg/kg, iv measured after 4 hrs by HPLC-UV and LC/MS analysis; type: ADME, organism-based; settings: in vivo
[30] = Drug uptake in rhesus monkey cerebellum administered intravenously and measured after 90 to 180 mins by PET/MRI imaging analysis; type: ADME, tissue-based, Macaca mulatta; settings: in vivo, iv, time 90-180 min
[31] = Drug uptake in rhesus monkey anterior cingulate cortex administered intravenously and measured after 90 to 180 mins by PET/MRI imaging analysis; type: ADME, tissue-based, Macaca mulatta; settings: in vivo, iv, time 90-180 min
[32] = Drug uptake in rhesus monkey frontal lobe administered intravenously and measured after 90 to 180 mins by PET/MRI imaging analysis; type: ADME, tissue-based, Macaca mulatta; settings: in vivo, iv, time 90-180 min
[33] = Drug uptake in rhesus monkey caudate nucleus administered intravenously and measured after 90 to 180 mins by PET/MRI imaging analysis; type: ADME, tissue-based, Macaca mulatta; settings: in vivo, iv, time 90-180 min
[34] = Drug uptake in rhesus monkey pons administered intravenously and measured after 90 to 180 mins by PET/MRI imaging analysis; type: ADME, tissue-based, Macaca mulatta; settings: in vivo, iv, time 90-180 min
[35] = Drug uptake in rhesus monkey cerebellum administered intravenously pretreated with N-(4-[(1S,2R)/(1R,2S)-2-[(Cyclopropylmethyl)amino)cyclopropyl)phenyl)-6-fluoro-4-methylpyridine-3-carboxamide followed by compound addition and measured after 90 to 180 mins by PET/MRI imaging analysis; type: ADME, Macaca mulatta; settings: in vivo, iv, time 90-180 min

O=C(Nc1ccc([C@@H]2C[C@H]2NCC2CC2)cc1)c1ccc(F)nc1
IC50 (LSD1/CoREST complex): 10 nM | efflux ratio at 1 h, 1 µM [1]: 0.8 | Drug metabolism [2]: 0.28 nmol/g | Drug metabolism [3]: Metabolite_Notdetected

CN(C(=O)c1ccc(CCC(=O)O)cc1)c1ccc(F)nc1
Drug uptake [4]: Not Active

Cc1cc(F)ncc1C(=O)O
Retention_time [5]: 2.19 min

Cc1cc(F)ncc1C(=O)Nc1ccc([C@@H]2C[C@H]2NCC2CC2)cc1
IC50 (LSD1/CoREST complex): 7.2 nM | efflux ratio at 1 h, 1 µM [1]: 0.91 | Drug metabolism [6]: 0.21 nmol/g | Retention_time [5]: 11.85 min | Drug metabolism [7]: Metabolite_Notdetected | Drug metabolism [8]: Metabolite_Notdetected | Drug metabolism [9]: Metabolite_Notdetected | Drug metabolism [10]: Metabolite_Notdetected | Drug metabolism [11]: Metabolite_Detected | Drug metabolism [12]: Metabolite_Notdetected | Activity [13]: Active | IC50 [14]: > 100000 nM | IC50 [15]: 33000 nM | concentration at 5 min [16]: 31.2 ng/mL | AUC(0-t) [17]: 51.6 ng·h/mL | half-life [18]: 1.75 h | clearance [19]: 32.5 mL/min/kg | Vd [20]: 3.13 L/kg | Ratio [21]: 0.69 | Ratio [22]: 0.67 | Ratio [23]: 0.277 | logD [24]: 1.62

Cc1nc(F)ccc1N(C)C(=O)c1ccc([C@@H]2C[C@H]2NCC2CC2)cc1
IC50 (LSD1/CoREST complex): 5.4 nM | efflux ratio at 1 h, 1 µM [1]: 1.3

Cc1cc(F)ncc1N(C)C(=O)c1ccc([C@@H]2C[C@H]2NCC2CC2)cc1
IC50 (LSD1/CoREST complex): 3.9 nM | efflux ratio at 1 h, 1 µM [1]: 1.4 | Drug metabolism [25]: 0.1 nmol/g | Drug metabolism [26]: 0.24 nmol/g

CN(C(=O)c1ccc([C@@H]2C[C@H]2NCC2CC2)cc1)c1ccc(F)nc1
Drug uptake [27]: Bld | Drug metabolism [28]: 0.87 nmol/g | Drug metabolism [29]: 1.16 nmol/g

Cc1cc([18F])ncc1C(=O)Nc1ccc([C@@H]2C[C@H]2NCC2CC2)cc1
Drug uptake [30]: Active | Drug uptake [31]: Active | Drug uptake [32]: Active | Drug uptake [33]: Active | Drug uptake [34]: Active | Drug uptake [35]: Not Active

O=C(c1ccc([C@@H]2C[C@H]2NCC2CC2)cc1)N1CCC(F)CC1
IC50 (LSD1/CoREST complex): 24 nM | efflux ratio at 1 h, 1 µM [1]: 0.66

CC(=O)N(C)c1ccc(F)nc1
Drug uptake [4]: Active

O=C(c1ccc([C@@H]2C[C@H]2NCC2CC2)cc1)N1CC(F)C1
IC50 (LSD1/CoREST complex): 64 nM | efflux ratio at 1 h, 1 µM [1]: 0.64
